Results published in the supplement of paper PMC6045584.
± gives the standard deviation of the averaged measurements.

Assays:
Experiment in all cases: surviving fraction relative to DMSO-only wells; higher = less growth inhibition
[1] = compound: CC(=O)c1c(C)c2cnc(Nc3ccc(N4CCNCC4)cn3)nc2n(C2CCCC2)c1=O; conditions: 1000 nM; exposure time: 5 days
Procedure, shortened: (§1)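 Inhibitors were tested at 0.5, 1, 5, 10, 50, 100, 500 and 1000 nM, applied continuously for five days beginning 24 hours after log-phase tumour cells were seeded at 250–500 per well in 384-well plates. CellTiter-Glo luminescence served as the viability measure, expressed as surviving fraction against the median of DMSO-only wells. Each line, screened three times, was kept only with replicate Pearson r >0.7 and median Z' >0.3.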

YM155 = compound: COCC[n+]1c2c(n(Cc3cnccn3)c1C)C(=O)c1ccccc1C2=O [YM155]; conditions: exposure time: 5 days
Procedure, shortened: as §1

CELECOXIB = compound: Cc1ccc(-c2cc(C(F)(F)F)nn2-c2ccc(S(N)(=O)=O)cc2)cc1 [CELECOXIB]; conditions: exposure time: 5 days
Procedure, shortened: as §1

[2] = compound: CC(=O)NCC(=O)N1[C@@H]2CC[C@H]1c1ccc(Nc3ncc(C(F)(F)F)c(NC4CCC4)n3)cc12; conditions: exposure time: 5 days
Procedure, shortened: as §1

PACLITAXEL = compound: CC(=O)O[C@H]1C(=O)[C@@]2(C)[C@H]([C@H](OC(=O)c3ccccc3)[C@]3(O)C[C@H](OC(=O)[C@H](O)[C@@H](NC(=O)c4ccccc4)c4ccccc4)C(C)=C1C3(C)C)[C@]1(OC(C)=O)CO[C@@H]1C[C@@H]2O [PACLITAXEL]; conditions: exposure time: 5 days
Procedure, shortened: as §1

OSI-906 = compound: C[C@]1(O)C[C@@H](c2nc(-c3ccc4ccc(-c5ccccc5)nc4c3)c3c(N)nccn32)C1 [OSI-906]; conditions: exposure time: 5 days
Procedure, shortened: as §1

Test System CAL72 BONE has a surviving fraction [1] of 1.07 ± 0.048, a surviving fraction (YM155; 0.5 nM) of 1.05 ± 0.081 and a surviving fraction (YM155; 1 nM) of 1.01 ± 0.097. The surviving fraction (YM155; 5 nM) was 0.347 ± 0.082, the surviving fraction (YM155; 10 nM) was 0.202 ± 0.034 and the surviving fraction (YM155; 50 nM) was 0.058 ± 0.005. The surviving fraction (YM155; 100 nM) was 0.0473 ± 0.0047, the surviving fraction (YM155; 500 nM) was 0.0423 ± 0.0029 and the surviving fraction (YM155; 1000 nM) was 0.054 ± 0.0044. The surviving fraction (CELECOXIB; 0.5 nM) was 1.03 ± 0.1, the surviving fraction (CELECOXIB; 1 nM) was 1.04 ± 0.14 and the surviving fraction (CELECOXIB; 5 nM) was 1.05 ± 0.11. For the same test system, the surviving fraction (CELECOXIB; 10 nM) was 1.04 ± 0.046, the surviving fraction (CELECOXIB; 50 nM) was 1.06 ± 0.12 and the surviving fraction (CELECOXIB; 100 nM) was 1.08 ± 0.17. The surviving fraction (CELECOXIB; 500 nM) was 1.07 ± 0.13, the surviving fraction (CELECOXIB; 1000 nM) was 1.09 ± 0.12 and the surviving fraction ([2]; 0.5 nM) was 1.06 ± 0.039. It also gave a surviving fraction ([2]; 1 nM) of 1.09 ± 0.051, a surviving fraction ([2]; 5 nM) of 1.12 ± 0.057 and a surviving fraction ([2]; 10 nM) of 1.04 ± 0.011. The surviving fraction ([2]; 50 nM) was 0.917 ± 0.032, the surviving fraction ([2]; 100 nM) was 0.846 ± 0.022 and the surviving fraction ([2]; 500 nM) was 0.571 ± 0.025. It also gave a surviving fraction ([2]; 1000 nM) of 0.419 ± 0.026, a surviving fraction (PACLITAXEL; 0.5 nM) of 0.876 ± 0.061 and a surviving fraction (PACLITAXEL; 1 nM) of 0.459 ± 0.078. The surviving fraction (PACLITAXEL; 5 nM) was 0.386 ± 0.047, the surviving fraction (PACLITAXEL; 10 nM) was 0.297 ± 0.032 and the surviving fraction (PACLITAXEL; 50 nM) was 0.191 ± 0.018. The surviving fraction (PACLITAXEL; 100 nM) was 0.135 ± 0.031, the surviving fraction (PACLITAXEL; 500 nM) was 0.112 ± 0.0096 and the surviving fraction (PACLITAXEL; 1000 nM) was 0.123 ± 0.025. The surviving fraction (OSI-906; 0.5 nM) was 1.009 ± 0.006, the surviving fraction (OSI-906; 1 nM) was 1 ± 0.018 and the surviving fraction (OSI-906; 5 nM) was 0.998 ± 0.049. The surviving fraction (OSI-906; 10 nM) was 0.966 ± 0.058, the surviving fraction (OSI-906; 50 nM) was 1 ± 0.038 and the surviving fraction (OSI-906; 100 nM) was 0.98 ± 0.028. The surviving fraction (OSI-906; 500 nM) was 0.893 ± 0.048 and the surviving fraction (OSI-906; 1000 nM) was 0.861 ± 0.082.
